The values below come from patent US7175872B2, “Pyridinium-Betain compounds for use as taste modulators” (Nestec S.A., priority 2002, dated 2007).

“Also recorded” adds a separate entry of the source. Where a name gives a salt, the structure may show the parent alone.

What all share (type): in vivo
The subject of one assay is sweet taste of sucrose. Briefly: Sweet taste detection threshold of sucrose/Pyridinium-Betaine mixtures (triangle test, sensory panel). Particulars: equimolar mixture with sucrose; for Threshold decrease: vs sucrose in water 12.5 mmol/L. Also on record: key to Threshold decrease: fold decrease of sweet threshold vs pure sucrose. On the procedure:
• Sensory panel training: […] Sensory analyses were performed in a sensory panel room at 22-25° C. on three different sessions. • Taste thresholds: The taste thresholds of the tastants or mixtures containing basic tastants plus Pyridinium-Betains were determined in a triangle test using Evian® mineral water as the solvent at a defined pH ([…] and H.-D. Belitz, Z. Lebensm. Unters. Forsch. 1975, 159, 65-72). The samples (3 mL) were presented in order of increasing concentrations (serial 1:1 dilutions). The threshold values evaluated in two different sessions were averaged. […] The taste intensities of aqueous (Evian®) solutions containing a basic tastant, such as glucose and MSG, for example, in constant concentrations and the compounds of the general formula (A), for example […], in various concentrations were compared with those of a solution containing the basic tastant only. To achieve this, triangle tests were performed with two glass vials containing the basic tastant in constant concentrations, and one glass vial containing a stepwise 1:1-diluted mixture of basic […]. […] The relative taste strength (taste enhancing factor) of a mixture containing the basic […] was related to the basic tastants glucose, MSG, or other tastants, respectively, as standard substances, and was determined as the ratio of the concentrations c of iso-intensely tasting solutions of the basic tastant, such as glucose (glc), and the mixture containing tastant plus Pyridinium-Betain, […])=[…] This taste enhancing effect is illustrated in examples. The sweet taste thresholds of equimolar mixtures of sweet tasting compounds and various Pyridinium-Betaines were determined by a triangle test using EVIAN® mineral water as the solvent. The sensorial evaluations were performed at different pH values. The equimolar mixture of […] and sucrose at pH 7.0 was evaluated with a 4-fold lower sweet threshold concentration than pure sucrose (Table 1).

The subject of another assay is salty taste of NaCl. Kind of assay: Salt taste detection threshold of NaCl/Pyridinium-Betaine mixtures (triangle test, sensory panel). Particulars: mixture with NaCl, pH 7.0. The procedure:
• Sensory panel training: […] Sensory analyses were performed in a sensory panel room at 22-25° C. on three different sessions. • Taste thresholds: The taste thresholds of the tastants or mixtures containing basic tastants plus Pyridinium-Betains were determined in a triangle test using Evian® mineral water as the solvent at a defined pH ([…] and H.-D. Belitz, Z. Lebensm. Unters. Forsch. 1975, 159, 65-72). The samples (3 mL) were presented in order of increasing concentrations (serial 1:1 dilutions). The threshold values evaluated in two different sessions were averaged. […] The taste intensities of aqueous (Evian®) solutions containing a basic tastant, such as glucose and MSG, for example, in constant concentrations and the compounds of the general formula (A), for example […], in various concentrations were compared with those of a solution containing the basic tastant only. […] The relative taste strength (taste enhancing factor) of a mixture containing the basic […] was related to the basic tastants glucose, MSG, or other tastants, respectively, as standard substances, and was determined as the ratio of the concentrations c of iso-intensely tasting solutions of the basic tastant, such as glucose (glc), and the mixture containing tastant plus Pyridinium-Betain, […])=[…] […] This taste enhancing effect is illustrated in examples.

In a further assay the test system is sweet taste of glucose. Briefly: Iso-intensity: relative sweetness of glucose/Alapyridaine mixtures. On the procedure: • Sensory panel training: […] Sensory analyses were performed in a sensory panel room at 22-25° C. on three different sessions. • Taste thresholds: The taste thresholds of the tastants or mixtures containing basic tastants plus Pyridinium-Betains were determined in a triangle test using Evian® mineral water as the solvent at a defined pH ([…] and H.-D. Belitz, Z. Lebensm. Unters. Forsch. 1975, 159, 65-72). The samples (3 mL) were presented in order of increasing concentrations (serial 1:1 dilutions). The threshold values evaluated in two different sessions were averaged. […] The taste intensities of aqueous (Evian®) solutions containing a basic tastant, such as glucose and MSG, for example, in constant concentrations and the compounds of the general formula (A), for example […], in various concentrations were compared with those of a solution containing the basic tastant only. […] The relative taste strength (taste enhancing factor) of a mixture containing the basic […] was related to the basic tastants glucose, MSG, or other tastants, respectively, as standard substances, and was determined as the ratio of the concentrations c of iso-intensely tasting solutions of the basic tastant, such as glucose (glc), and the mixture containing tastant plus Pyridinium-Betain, […])=[…] […]

In the case of `CC(C(=O)[O-])[n+]1cc(O)ccc1CO` (centres unmarked) [Alapyridaine, N-(1-carboxyethyl)-3-hydroxy-6-hydroxymethyl-pyridinium inner salt], the Sweet detection threshold is listed as 3.0 mmol/kg water in the assay with sweet taste of sucrose (pH 5.0), 3.0 mmol/kg water in the assay with sweet taste of sucrose (pH 7.0) and 1.5 mmol/kg water in the assay with sweet taste of sucrose (pH 9.0). Further, the Taste quality entry with sweet taste of sucrose (pH 5.0) was “sour taste; also recorded: sweet/”; in the assay with sweet taste of sucrose (pH 7.0), “sweet”; with sweet taste of sucrose (pH 9.0), “sweet”; with salty taste of NaCl, “salty”. For the same compound, the Threshold decrease came to 4.0 with sweet taste of sucrose (pH 5.0), 4 in the assay on sweet taste of sucrose (pH 7.0), 8 in the assay on sweet taste of sucrose (pH 9.0) and 5.0 in the assay on salty taste of NaCl (vs NaCl in water 10.0 mmol/L). The Salt detection threshold in the assay with salty taste of NaCl is 2.0 mmol/kg water. The “relative sweetness (iso-intensity)” value with sweet taste of glucose (80 mmol/kg glucose and 125 mmol/kg Alapyridaine vs 80 mmol/kg glucose) is reported as 8 -fold. In addition, the “maximum relative sweetness (iso-intensity)” value in the assay with sweet taste of glucose (267 mmol/kg glucose and 125 mmol/kg Alapyridaine vs reference solution 267 mmol/kg glucose) is 5.3 -fold.
